{"source": "ChEMBL document CHEMBL4033793", "about": "“Potent and Selective Inhibitors of Human Sirtuin 5” (J Med Chem, 2018)", "note": "Residues, ends and D or L forms follow the SMILES beside them. *: point of attachment. X51 = O=C(O)[C@@H](CC(=O)*)SCc1ccc([N+](=O)[O-])cc1; X49 = O=C(O)[C@H](CC(=O)*)SCc1cccc(C(F)(F)F)c1; X62 = Cc1cc(C)c(CS[C@@H](CC(=O)*)C(=O)O)c(C)c1; X56 = Cc1cc(C)c(CS[C@H](CC(=O)*)C(=O)O)c(C)c1; X55 = O=C(O)[C@@H](CC(=O)*)Sc1ccc(Cl)cc1Cl; X58 = O=C(O)[C@@H](CC(=O)*)Sc1cccc(Cl)c1Cl; X50 = O=C(O)[C@H](CC(=O)*)Sc1cc(Cl)ccc1Cl; X59 = O=C(O)[C@@H](CC(=O)*)SCc1ccc(Cl)cc1; X57 = O=C(O)[C@@H](CC(=O)*)Sc1ccc(Cl)cc1; X61 = O=C(O)[C@@H](CC(=O)*)Sc1cccc(Cl)c1; X47 = O=C(O)[C@@H](CC(=O)*)SCc1ccccc1Cl; X48 = O=C(O)[C@@H](CC(=O)*)SCCCc1ccccc1; X53 = O=C(O)[C@H](CC(=O)*)Sc1ccccc1Cl; X54 = O=C(O)[C@H](CC(=O)*)SCCc1ccccc1; X60 = O=C(O)[C@@H](CC(=O)*)SCc1ccccc1; Bz = O=C(c1ccccc1)*", "data": [{"biological_target": "NAD-dependent protein deacylase sirtuin-5, mitochondrial (Homo sapiens, UniProt Q9NXA8)", "sequence (Q9NXA8 whole entry)": "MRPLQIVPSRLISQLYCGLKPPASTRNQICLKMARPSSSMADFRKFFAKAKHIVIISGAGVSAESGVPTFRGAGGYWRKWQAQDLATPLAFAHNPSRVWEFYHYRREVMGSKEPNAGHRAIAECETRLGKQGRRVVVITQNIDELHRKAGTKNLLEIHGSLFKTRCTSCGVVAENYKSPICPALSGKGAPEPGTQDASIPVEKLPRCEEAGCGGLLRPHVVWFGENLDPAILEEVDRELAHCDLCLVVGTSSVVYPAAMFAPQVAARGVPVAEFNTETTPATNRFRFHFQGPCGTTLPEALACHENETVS", "assay": "Inhibition of human recombinant N-terminal Strep2-tagged SIRT5 expressed in Escherichia coli BL21 (DE3) using Abz-GVLK(glutaryl)AY(NO2)GV-NH2 as substrate in presence of NAD+ by fluorescence assay", "units": {"IC50": "nM"}, "values": [{"smiles": "CC(C)C[C@H](NC(=O)[C@@H](NC(=O)CNC(=O)c1ccccc1)C(C)C)C(=O)N[C@@H](CCCCNC(=O)C[C@@H](SCc1ccccc1Cl)C(=O)O)C(=O)N[C@@H](CCC(=O)O)C(=O)N[C@@H](Cc1ccc(O)cc1)C(=O)NCC(=O)N[C@H](C(N)=O)C(C)C", "note": "(Bz-GVLK(X47)EYGV-NH2)", "IC50": 352}, {"smiles": "CC(C)C[C@H](NC(=O)[C@@H](NC(=O)CNC(=O)c1ccccc1)C(C)C)C(=O)N[C@@H](CCCCNC(=O)C[C@@H](SCCCc1ccccc1)C(=O)O)C(=O)N[C@@H](CCC(=O)O)C(=O)N[C@@H](Cc1ccc(O)cc1)C(=O)NCC(=O)N[C@H](C(N)=O)C(C)C", "note": "(Bz-GVLK(X48)EYGV-NH2)", "IC50": 2060}, {"smiles": "CC(C)C[C@H](NC(=O)[C@@H](NC(=O)CNC(=O)c1ccccc1)C(C)C)C(=O)N[C@@H](CCCCNC(=O)C[C@H](SCc1cccc(C(F)(F)F)c1)C(=O)O)C(=O)N[C@@H](CCC(=O)O)C(=O)N[C@@H](Cc1ccc(O)cc1)C(=O)NCC(=O)N[C@H](C(N)=O)C(C)C", "note": "(Bz-GVLK(X49)EYGV-NH2)", "IC50": 1120}, {"smiles": "CC(C)C[C@H](NC(=O)[C@@H](NC(=O)CNC(=O)c1ccccc1)C(C)C)C(=O)N[C@@H](CCCCNC(=O)C[C@H](Sc1cc(Cl)ccc1Cl)C(=O)O)C(=O)N[C@@H](CCC(=O)O)C(=O)N[C@@H](Cc1ccc(O)cc1)C(=O)NCC(=O)N[C@H](C(N)=O)C(C)C", "note": "(Bz-GVLK(X50)EYGV-NH2)", "IC50": 295}, {"smiles": "CC(C)C[C@H](NC(=O)[C@@H](NC(=O)CNC(=O)c1ccccc1)C(C)C)C(=O)N[C@@H](CCCCNC(=O)C[C@@H](SCc1ccc([N+](=O)[O-])cc1)C(=O)O)C(=O)N[C@@H](CCC(=O)O)C(=O)N[C@@H](Cc1ccc(O)cc1)C(=O)NCC(=O)N[C@H](C(N)=O)C(C)C", "note": "(Bz-GVLK(X51)EYGV-NH2)", "IC50": 4030}, {"smiles": "CC(C)C[C@H](NC(=O)[C@@H](NC(=O)CNC(=O)c1ccccc1)C(C)C)C(=O)N[C@@H](CCCCNC(=O)C[C@H](Sc1ccccc1Cl)C(=O)O)C(=O)N[C@@H](CCC(=O)O)C(=O)N[C@@H](Cc1ccc(O)cc1)C(=O)NCC(=O)N[C@H](C(N)=O)C(C)C", "note": "(Bz-GVLK(X53)EYGV-NH2)", "IC50": 857}, {"smiles": "CC(C)C[C@H](NC(=O)[C@@H](NC(=O)CNC(=O)c1ccccc1)C(C)C)C(=O)N[C@@H](CCCCNC(=O)C[C@H](SCCc1ccccc1)C(=O)O)C(=O)N[C@@H](CCC(=O)O)C(=O)N[C@@H](Cc1ccc(O)cc1)C(=O)NCC(=O)N[C@H](C(N)=O)C(C)C", "note": "(Bz-GVLK(X54)EYGV-NH2)", "IC50": 2740}, {"smiles": "CC(C)C[C@H](NC(=O)[C@@H](NC(=O)CNC(=O)c1ccccc1)C(C)C)C(=O)N[C@@H](CCCCNC(=O)C[C@@H](Sc1ccc(Cl)cc1Cl)C(=O)O)C(=O)N[C@@H](CCC(=O)O)C(=O)N[C@@H](Cc1ccc(O)cc1)C(=O)NCC(=O)N[C@H](C(N)=O)C(C)C", "note": "(Bz-GVLK(X55)EYGV-NH2)", "IC50": 2010}, {"smiles": "Cc1cc(C)c(CS[C@H](CC(=O)NCCCC[C@H](NC(=O)[C@H](CC(C)C)NC(=O)[C@@H](NC(=O)CNC(=O)c2ccccc2)C(C)C)C(=O)N[C@@H](CCC(=O)O)C(=O)N[C@@H](Cc2ccc(O)cc2)C(=O)NCC(=O)N[C@H](C(N)=O)C(C)C)C(=O)O)c(C)c1", "note": "(Bz-GVLK(X56)EYGV-NH2)", "IC50": 631}, {"smiles": "CC(C)C[C@H](NC(=O)[C@@H](NC(=O)CNC(=O)c1ccccc1)C(C)C)C(=O)N[C@@H](CCCCNC(=O)C[C@@H](Sc1ccc(Cl)cc1)C(=O)O)C(=O)N[C@@H](CCC(=O)O)C(=O)N[C@@H](Cc1ccc(O)cc1)C(=O)NCC(=O)N[C@H](C(N)=O)C(C)C", "note": "(Bz-GVLK(X57)EYGV-NH2)", "IC50": 1610}, {"smiles": "CC(C)C[C@H](NC(=O)[C@@H](NC(=O)CNC(=O)c1ccccc1)C(C)C)C(=O)N[C@@H](CCCCNC(=O)C[C@@H](Sc1cccc(Cl)c1Cl)C(=O)O)C(=O)N[C@@H](CCC(=O)O)C(=O)N[C@@H](Cc1ccc(O)cc1)C(=O)NCC(=O)N[C@H](C(N)=O)C(C)C", "note": "(Bz-GVLK(X58)EYGV-NH2)", "IC50": 3390}, {"smiles": "CC(C)C[C@H](NC(=O)[C@@H](NC(=O)CNC(=O)c1ccccc1)C(C)C)C(=O)N[C@@H](CCCCNC(=O)C[C@@H](SCc1ccc(Cl)cc1)C(=O)O)C(=O)N[C@@H](CCC(=O)O)C(=O)N[C@@H](Cc1ccc(O)cc1)C(=O)NCC(=O)N[C@H](C(N)=O)C(C)C", "note": "(Bz-GVLK(X59)EYGV-NH2)", "IC50": 1020}, {"smiles": "CC(C)C[C@H](NC(=O)[C@@H](NC(=O)CNC(=O)c1ccccc1)C(C)C)C(=O)N[C@@H](CCCCNC(=O)C[C@@H](SCc1ccccc1)C(=O)O)C(=O)N[C@@H](CCC(=O)O)C(=O)N[C@@H](Cc1ccc(O)cc1)C(=O)NCC(=O)N[C@H](C(N)=O)C(C)C", "note": "(Bz-GVLK(X60)EYGV-NH2)", "IC50": 644}, {"smiles": "CC(C)C[C@H](NC(=O)[C@@H](NC(=O)CNC(=O)c1ccccc1)C(C)C)C(=O)N[C@@H](CCCCNC(=O)C[C@@H](Sc1cccc(Cl)c1)C(=O)O)C(=O)N[C@@H](CCC(=O)O)C(=O)N[C@@H](Cc1ccc(O)cc1)C(=O)NCC(=O)N[C@H](C(N)=O)C(C)C", "note": "(Bz-GVLK(X61)EYGV-NH2)", "IC50": 1380}, {"smiles": "Cc1cc(C)c(CS[C@@H](CC(=O)NCCCC[C@H](NC(=O)[C@H](CC(C)C)NC(=O)[C@@H](NC(=O)CNC(=O)c2ccccc2)C(C)C)C(=O)N[C@@H](CCC(=O)O)C(=O)N[C@@H](Cc2ccc(O)cc2)C(=O)NCC(=O)N[C@H](C(N)=O)C(C)C)C(=O)O)c(C)c1", "note": "(Bz-GVLK(X62)EYGV-NH2)", "IC50": 5200}]}]}
